Test results as given in patent publication US8278338B2 (priority 2004, dated 2012).
Read-outs that look alike come from different tables or passages of the source.

Columns and labels:
human μ-opiate receptor = molecular target: T1, human μ-opiate receptor (Homo sapiens, UniProt P35372); assay: Affinity for the human μ-opiate receptor, [3H]-naloxone displacement (SPA) on CHO-K1 receptor membrane preparation; assay type: binding; settings: for inhibition at 1 µM: 1.5 h, read-out: μ-Opioid receptor affinity (% inhibition at 1 μmol./l), 1 μmol./l test substance; for inhibition at 1 µM / μ-Opioid receptor affinity (% inhibition at 1 μmol./l): inhibition of specific [3H]-naloxone binding; for μ-Opioid receptor affinity (% inhibition at 1 μmol./l): 1 μmol./l test substance
T1 construct: purchased Perkin Elmer, Zaventem, Belgium RB-HOM; host or cells: CHO-K1 cells
Description: The receptor affinity for the human μ-opiate receptor was determined in a homogeneous batch on microtitre plates. To that end, serial dilutions of the substances to be tested were incubated for 90 minutes at room temperature with a receptor membrane preparation (15-40 μg of protein/250 μl of incubation batch) of CHO-K1 cells, which express the human μ-opiate receptor (RB-HOM receptor membrane preparation from Perkin Elmer, Zaventem, Belgium), in the presence of 1 nmol./l of the radioactive ligand [^3H]-naloxone (NET719, Perkin Elmer, Zaventem, Belgium) and 1 mg of WGA-SPA beads (wheatgerm agglutinin SPA beads from Amersham/Pharmacia, Freiburg, Germany) in a total volume of 250 μl. The incubation buffer used was 50 mmol./l of Tris-HCl supplemented with 50 μM MgCl2 and 0.05% bovine serum albumin. In order to determine non-specific binding, 100 μmol./l of naloxone were additionally added. When the ninety-minute incubation time was complete, the microtitre plates were centrifuged off for 20 minutes at 1000 g and the radioactivity was measured in a β-counter (Microbeta-Trilux, PerkinElmer, Freiburg, Germany). The percentage displacement of the radioactive ligand from its binding to the human μ-opiate receptor at a concentration of the test substances of 1 μmol./l was determined and stated as the percentage inhibition of specific binding. […] Ki values for the test substances were obtained by conversion by means of the Cheng-Prusoff equation (Cheng and Prusoff 1973).

rat = assay: Formalin test in the rat (phase 2, chronic pain component); assay type: in vivo; settings: for Inhibition of the nociceptive behaviour versus control (% inhibition): phase 2
Description: The formalin test (Dubuisson, D. and Dennis, S. G., 1977, Pain, 4, 161-174) represents a model for acute and chronic pain. By means of a single formalin injection into the dorsal side of a rear paw, a biphase nociceptive reaction was induced in freely mobile test animals; the reaction was assessed by observing three behaviour patterns which are clearly distinguishable from one another. The reaction is two-phase: phase 1=immediate reaction (duration up to 10 minutes; shaking of the paw, licking), phase 2=late reaction (after a rest phase; likewise shaking of the paw, licking; duration up to 60 minutes). The first phase reflects a direct stimulation of the peripheral nocisensors with a high spinal nociceptive input or glutamate release (acute pain phase); the second phase reflects a spinal and peripheral hypersensitisation (chronic pain phase). In the studies presented here, the chronic pain component (phase 2) was evaluated.
Formalin was administered subcutaneously in a volume of 50 μl and a concentration of 5% into the dorsal side of the right rear paw of each animal. The specific behavioural changes, such as lifting and shaking of the paw, weight shifting of the animal and biting and licking reactions, were observed and recorded over an observation period of from 21 to 27 minutes after the formalin injection. The various behaviours were combined to give the so-called pain rate (PR) which, based on 3-minute intervals, represents the calculation of a mean nociceptive reaction. The PR was calculated on the basis of a numerical weighting (=in each case factor 1, 2, 3) of the observed behaviours (corresponding to behaviour score 1, 2, 3) and was calculated using the following formula:
The size of the group was 10 animals (n=10).
On the basis of the PR calculations, the activity of the substance was determined in percent as the change relative to a control. The ED50 was determined by means of regression analysis.

5-HT reuptake = 5-HT reuptake (Rattus norvegicus, UniProt P31652); assay: biochemical; settings: for inhibition at 10 µM: read-out: Inhibition of 5-HT reuptake (% inhibition at 10 μmol./l), 10 μmol./l
Excerpt: In order to be able to carry out these in vitro studies, synaptosomes were freshly isolated from areas of rat brain. […] For NA reuptake, these vesicular particles were isolated from the hypothalamus of male rat brains, and for 5HT reuptake, they were isolated from the medulla+pons region.
The IC50 values were obtained with the aid of the “Figure P” computer program (Version 6.0, Biosoft, Cambridge, England). […] The “Ligand” computer program (Version 4, Biosoft, England) was used to show KD values.

NA reuptake = molecular target: T2, NA reuptake (Rattus norvegicus, UniProt Q63380); assay: Inhibition of NA reuptake in rat brain synaptosomes (hypothalamus, P2 fraction); assay type: biochemical; settings: for inhibition at 10 µM: 10 μmol./l
T2 construct: isolated from the hypothalamus of male rat brains; from tissue; host or cells: rat brain synaptosomes (P2 fraction), hypothalamus of male rats
Description: In order to be able to carry out these in vitro studies, synaptosomes were freshly isolated from areas of rat brain. A so-called “P2” fraction was used in each case, which was prepared exactly according to the procedure of Gray, E. G. and Whittaker, V. P. (1962, J. Anat. […], 79-88). For NA reuptake, these vesicular particles were isolated from the hypothalamus of male rat brains, and for 5HT reuptake, they were isolated from the medulla+pons region.
IC50 values were obtained thereby which can be converted into inhibitor constants (Ki) according to the “Cheng-Prusoff equation” (Cheng, Y. C. and Prusoff, W. H., 1973, Biochem. Pharmacol. 22, 3099-3108). The IC50 values were obtained with the aid of the “Figure P” computer program (Version 6.0, Biosoft, Cambridge, England). Km values were calculated according to Lineweaver, H. and Burk, D. (1934, J. Am. Chem. Soc. 56, 658-666). The “Ligand” computer program (Version 4, Biosoft, England) was used to show KD values.

[1] = rat synaptosomes, Cheng-Prusoff
[2] = Cheng-Prusoff from IC50, [3H]-naloxone 1 nmol./l, read-out: μ-Opioid receptor affinity, Ki

T1 sequence (P35372 whole entry): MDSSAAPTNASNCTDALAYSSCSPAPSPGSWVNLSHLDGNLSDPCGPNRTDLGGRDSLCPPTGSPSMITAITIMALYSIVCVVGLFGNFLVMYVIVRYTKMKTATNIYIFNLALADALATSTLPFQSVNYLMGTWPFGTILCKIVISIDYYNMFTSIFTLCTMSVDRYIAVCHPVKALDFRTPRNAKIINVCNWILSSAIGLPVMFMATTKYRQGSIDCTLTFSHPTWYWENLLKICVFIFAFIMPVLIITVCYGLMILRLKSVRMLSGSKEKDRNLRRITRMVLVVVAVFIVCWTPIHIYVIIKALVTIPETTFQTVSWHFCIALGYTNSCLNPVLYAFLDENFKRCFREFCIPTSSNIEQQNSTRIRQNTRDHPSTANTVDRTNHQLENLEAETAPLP
Sequence of 5-HT reuptake (P31652 whole entry): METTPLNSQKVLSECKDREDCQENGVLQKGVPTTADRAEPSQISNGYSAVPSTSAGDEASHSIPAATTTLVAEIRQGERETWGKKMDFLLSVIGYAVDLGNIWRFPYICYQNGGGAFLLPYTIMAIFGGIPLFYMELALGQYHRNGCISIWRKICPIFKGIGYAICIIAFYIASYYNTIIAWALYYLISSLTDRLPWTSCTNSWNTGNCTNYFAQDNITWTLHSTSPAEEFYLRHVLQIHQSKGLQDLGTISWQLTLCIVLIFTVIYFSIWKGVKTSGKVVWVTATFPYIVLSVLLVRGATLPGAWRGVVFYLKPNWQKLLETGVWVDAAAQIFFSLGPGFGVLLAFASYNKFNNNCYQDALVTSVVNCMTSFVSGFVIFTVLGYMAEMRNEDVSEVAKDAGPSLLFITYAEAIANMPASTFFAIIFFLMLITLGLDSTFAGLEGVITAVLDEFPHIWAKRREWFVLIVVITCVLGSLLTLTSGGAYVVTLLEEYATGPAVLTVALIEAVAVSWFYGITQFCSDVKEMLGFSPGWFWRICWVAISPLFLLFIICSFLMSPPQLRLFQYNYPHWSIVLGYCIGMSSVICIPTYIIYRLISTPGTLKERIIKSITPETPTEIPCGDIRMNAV
T2 sequence (Q63380 1-617): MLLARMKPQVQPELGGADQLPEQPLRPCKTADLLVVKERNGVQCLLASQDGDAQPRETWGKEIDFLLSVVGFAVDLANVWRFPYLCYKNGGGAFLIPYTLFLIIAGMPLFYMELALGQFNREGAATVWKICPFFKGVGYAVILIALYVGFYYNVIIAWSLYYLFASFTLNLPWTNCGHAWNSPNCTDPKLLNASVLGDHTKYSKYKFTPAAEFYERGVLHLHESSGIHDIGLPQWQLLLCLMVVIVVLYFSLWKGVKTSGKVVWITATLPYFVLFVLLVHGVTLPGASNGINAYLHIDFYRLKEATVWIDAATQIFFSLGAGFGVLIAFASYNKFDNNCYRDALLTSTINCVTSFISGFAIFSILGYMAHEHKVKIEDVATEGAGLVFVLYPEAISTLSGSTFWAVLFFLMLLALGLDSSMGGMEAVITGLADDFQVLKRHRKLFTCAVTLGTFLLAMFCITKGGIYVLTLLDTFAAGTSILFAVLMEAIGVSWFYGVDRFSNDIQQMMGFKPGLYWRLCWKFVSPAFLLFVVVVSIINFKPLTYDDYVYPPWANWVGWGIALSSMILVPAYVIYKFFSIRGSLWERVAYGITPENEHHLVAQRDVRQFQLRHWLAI

SMILES	inhibition at 1 µM (human μ-opiate receptor)	inhibition at 10 µM (NA reuptake)	inhibition at 10 µM (5-HT reuptake; rat synaptosomes)	also measured
COc1ccc2c(c1)CC(CN(C)C)C2(O)c1cccnc1 (centres unmarked) [Example 5, 2-dimethylaminomethyl-5-methoxy-1-pyridin-3-yl-indan-1-ol]	49%	29%		Inhibition of the nociceptive behaviour versus control (% inhibition) (rat; 21.5 mg/kg i.v.): −43.0%; Ki (5-HT reuptake; [1]): 170 nM
CN(C)CC1Cc2cc(C(F)(F)F)ccc2C1(O)c1cccnc1 (centres unmarked) [Example 22, 2-dimethylaminomethyl-1-pyridin-3-yl-5-trifluoromethyl-indan-1-ol]	2%	17%	61%	
CN(C)CC1=C(c2cccnc2)c2cccc(O)c2CC1 [Example 39, 6-dimethylaminomethyl-5-pyridin-3-yl-7,8-dihydro-naphthalen-1-ol]		50%		Ki (human μ-opiate receptor): 20 nM; Ki (5-HT reuptake): 250 nM
CN(C)CC1CCS(=O)(=O)c2ccccc2C1(O)c1cccnc1 (centres unmarked) [Example 17, 4-dimethylaminomethyl-1,1-dioxo-5-pyridin-3-yl-2,3,4,5-tetrahydro-1H-1λ6-benzo[b]thiepin-5-ol]	-13%	19%	57%	
CN(C)CC1=C(c2cccnc2)c2ccc(O)cc2C1 [Example 7, 2-dimethylaminomethyl-1-pyridin-3-yl-3H-inden-5-ol]		59%		Ki (human μ-opiate receptor; [2]): 380 nM; ED50 (rat; iv, phase 2, regression analysis, read-out: Inhibition of the nociceptive behaviour versus control, ED50 value): 2.93 mg/kg; Ki (5-HT reuptake): 25 nM
CN(C)CC1=C(c2cccnc2)c2ccccc2[S+]([O-])CC1 (centres unmarked) [Example 16, dimethyl-(1-oxo-5-pyridin-3-yl-2,3-dihydro-1H-1λ4-benzo[b]thiepin-4-ylmethyl)-amine]		-2%	35%	Ki (human μ-opiate receptor; [2]): 210 nM
CN(C)CC1Cc2cc(OC(F)(F)F)ccc2C1(O)c1cccnc1 (centres unmarked) [Example 20, 2-dimethylaminomethyl-1-pyridin-3-yl-5-trifluoromethoxy-indan-1-ol]	-19%	38%	71%	
COc1cccc2c1CCC(CN(C)C)=C2c1cccnc1 [Example 38, (5-methoxy-1-pyridin-3-yl-3,4-dihydro-naphthalen-2-ylmethyl)-dimethyl-amine]		34%		Ki (human μ-opiate receptor; [2]): 460 nM; Ki (5-HT reuptake; [1]): 370 nM
CN(C)CC1=C(c2cccnc2)c2ccc(C(F)(F)F)cc2C1 [Example 23, dimethyl-(3-pyridin-3-yl-6-trifluoromethyl-1H-inden-2-ylmethyl)-amine]	-8%	6%	47%	
CN(C)CC1=C(c2cccnc2)c2ccccc2SCC1 [Example 15, dimethyl-(5-pyridin-3-yl-2,3-dihydro-benzo[b]thiepin-4-ylmethyl)-amine]		36%	60%	Ki (human μ-opiate receptor; [2]): 320 nM; Inhibition of the nociceptive behaviour versus control (% inhibition) (rat; 10 mg/kg i.v.): −70.7%
CN(C)CC1CCCc2ccccc2C1(O)c1cccnc1 (centres unmarked) [Example 11, 6-dimethylaminomethyl-5-pyridin-3-yl-6,7,8,9-tetrahydro-5H-benzocyclohepten-5-ol]	20%	39%		Ki (5-HT reuptake): 28 nM
COc1cccc2c1CCC(CN(C)C)C2(O)c1cccnc1 (centres unmarked) [Example 37, 2-dimethylaminomethyl-5-methoxy-1-pyridin-3-yl-1,2,3,4-tetrahydro-naphthalen-1-ol]				μ-Opioid receptor affinity (% inhibition at 1 μmol./l) (human μ-opiate receptor): 8%; Inhibition of 5-HT reuptake (% inhibition at 10 μmol./l) (5-HT reuptake; rat synaptosomes): 19%; Inhibition of NA reuptake (% inhibition at 10 μmol./l) (NA reuptake): 57%
CN(C)CC1CCOc2ccccc2C1(O)c1cccnc1 (centres unmarked) [Example 24, 4-dimethylaminomethyl-5-pyridin-3-yl-2,3,4,5-tetrahydro-benzo[b]oxepin-5-ol]	45%	9%	12%	
COc1cccc2c1CCC(CN(C)C)C2(O)c1cccnc1 (centres unmarked) [Example 36, 2-dimethylaminomethyl-5-methoxy-1-pyridin-3-yl-1,2,3,4-tetrahydro-naphthalen-1-ol]		49%	33%	μ-Opioid receptor affinity (% inhibition at 1 μmol./l) (human μ-opiate receptor): −14%
CN(C)CC1Cc2ccccc2C1(O)c1cccnc1 (single isomer, unassigned) [Example 1, 2-dimethylaminomethyl-1-pyridin-3-yl-indan-1-ol]		33%		μ-Opioid receptor affinity (% inhibition at 1 μmol./l) (human μ-opiate receptor): 1%; Inhibition of 5-HT reuptake (% inhibition at 10 μmol./l) (5-HT reuptake; rat synaptosomes): 63%
CN(C)CC1=C(c2cccnc2)c2ccccc2OCC1 [Example 26, dimethyl-(5-pyridin-3-yl-2,3-dihydro-benzo[b]oxepin-4-ylmethyl)-amine]	37%	9%	50%	
CNCC[C@H](Oc1cccc2ccccc12)c1cccs1 [Duloxetin, duloxetin, reference compound]				μ-Opioid receptor affinity (% inhibition at 1 μmol./l) (human μ-opiate receptor): −10%; Inhibition of the nociceptive behaviour versus control, ED50 value (rat; i.v., phase 2, regression analysis): 1.43 mg/kg
CN(C)CC1CCc2ccccc2C1(O)c1cccnc1 (centres unmarked) [Example 8, 2-dimethylaminomethyl-1-pyridin-3-yl-1,2,3,4-tetrahydro-naphthalen-1-ol]				Inhibition of the nociceptive behaviour versus control (% inhibition) (rat; 46.4 mg/kg i.v.): −65.8%
CN(C)CC1=C(c2cccnc2)c2ccc(OC(F)(F)F)cc2C1 [Example 21, dimethyl-(3-pyridin-3-yl-6-trifluoromethoxy-1H-inden-2-ylmethyl)-amine]	5%	14%		Ki (5-HT reuptake; [1]): 430 nM
CN(C)CC1CSc2ccccc2C1(O)c1cccnc1 (centres unmarked) [Example 31, 3-dimethylaminomethyl-4-pyridin-3-yl-thiochroman-4-ol]		48%	-4%	
CN(C)CC1=C(c2cccnc2)c2ccc(F)cc2C1 [Example 19, (6-fluoro-3-pyridin-3-yl-1H-inden-2-ylmethyl)-dimethyl-amine]		31%		Ki (human μ-opiate receptor): 290 nM; Ki (5-HT reuptake; [1]): 43 nM
CN(C)CC1Cc2cc(F)ccc2C1(O)c1cccnc1 (centres unmarked) [Example 18, 2-dimethylaminomethyl-5-fluoro-1-pyridin-3-yl-indan-1-ol]	-6%	29%	56%	
